US8916567B2, “Certain crystalline hydrates, pharmaceutical compositions thereof and methods for preparation and use thereof” (Universal Technology Alliance, Inc., priority 2009, dated 2014)

Key:
Assay type in all cases: cell-based
S. epidermidis MSSE = assay: Minimum inhibitory concentration (MIC) in vitro, agar dilution method
Excerpt: (§1) Hydrates Samples: • The 1/2 hydrates prepared according to Example 2; • Content (purity % wt): 99.0%; • The 1/12 hydrates prepared according to Example 253; • Content (purity % wt): 98.9%; • The 2/7 hydrates prepared according to Example 106; • Content (purity % wt): 98.8%; • The 2/5 hydrates prepared according to Example 162; • Content (purity % wt): 99.0%; • The 3/4 hydrates prepared according to Example 337; • Content (purity % wt): 98.8%; • Preparation: dissolved in DMSO, and further diluted with sterile distilled water to desired concentration. • The hydrates samples were supplied by Sichuan Beilike Biotechnology LTD.
(§2) Anhydrous Sample: • The anhydrous compounds prepared according to Example 1. • Content (purity % wt): 98.6%; • Preparation: dissolved in DMSO, and further diluted with sterile distilled water to desired concentration; • The anhydrous sample was supplied by Sichuan Beilike Biotechnology LTD.
(§3) Control Samples • Vancomycin: provided by Sichuan Beilike Biotechnology LTD, purchased from Eli Lilly Japan K.K. • Lot No.: WM16151 (production date: Apr. 10, 2007, expiration date: Apr. 9, 2009). • Specification: 500 mg/bottle; solubility (physicochemical properties): soluble in water. • Linezolid (LZ): provided by Sichuan Beilike Biotechnology LTD.
(§4) Bacteria Strains • Clinically isolated strains: clinically isolated bacterial pathogens collected in Sichuan and Beijing areas from March 2007 to May 2008. • Species include: Staphylococcus aureus MRSA, Staphylococcus aureus MSSA, S. epidermidis MRSE, S. epidermidis MSSE, E. feacalis, and E. feacium, a total of 51 strains. • Quality control strains: Staphylococcus aureus […] strain kept in Sichuan Industrial Institute of Antibiotics, purchased from the medical testing center of the Ministry of Health, China.
(§5) Experimental Method: • Measurement of the minimum inhibitory concentration (MIC) in vitro: • The minimum inhibitory concentration (MIC) of each test sample against test strains was measured by using the agar dilution method recommended by the U.S. National Committee for Clinical Laboratory Standards (CLSI/NCCIs).
(§6) Based on the CLSI/NCCL's testing standard with respect to vancomycin and linezolid (see Table 6), the minimum inhibitory concentration (MIC) values of every strain were reported, and the MIC50 (the concentration that inhibits 50% of the different strains of bacteria), MIC90 (the concentration that inhibits 90% of the different strains of bacteria), and MICrange (the range of the MIC value of the tested strains) were observed.

E. feacium = assay: as above
Excerpt: as §1, §2, §3, §4, §5, §6

E. feacalis = assay: as above
Excerpt: as §1, §2, §3, §4, §5, §6

[1] = tested on: Staphylococcus aureus MSSA; assay: as above
Excerpt: as §1, §2, §3, §4, §5, §6

S. epidermidis MRSE = assay: as above
Excerpt: as §1, §2, §3, §4, §5, §6

[2] = tested on: Staphylococcus aureus MRSA; assay: as above
Excerpt: as §1, §2, §3, §4, §5, §6

Staphylococcus aureus = assay: Minimum inhibitory concentration (MIC) in vitro, agar dilution method, quality control strain; details: Staphylococcus aureus, ATCC27853
Excerpt: as §1, §2, §3, §4, §5, §6

[3] = Staphylococcus epidermidis, MRSE

CN[C@H](CC(C)C)C(=O)N[C@H]1C(=O)N[C@@H](CC(N)=O)C(=O)N[C@H]2C(=O)N[C@H]3C(=O)N[C@H](C(=O)N[C@H](C(=O)O)c4cc(O)cc(O)c4-c4cc3ccc4O)[C@H](O)c3ccc(c(Cl)c3)Oc3cc2cc(c3O[C@@H]2O[C@H](CO)[C@@H](O)[C@H](O)[C@H]2O[C@H]2C[C@](C)(N)[C@H](O)[C@H](C)O2)Oc2ccc(cc2Cl)[C@H]1O [Vancomycin, reference compound]
5 µg/mL: MIC ([2]; Staphylococcus aureus, MRSA, strain S. MRSA B617 (Table 7 No. 18))
0.06 to 1 µg/mL: MICrange (S. epidermidis MSSE; S. ep MSSE (10 strains), clinically isolated)
2 to 8 µg/mL: MICrange (E. feacium; E. feacium (5 strains), clinically isolated)
0.5 µg/mL: MIC50 (S. epidermidis MSSE; Staphylococcus epidermidis) | MIC (S. epidermidis MSSE; Staphylococcus epidermidis, strain S. ep MSSE113 (Table 7 No. 24)) | MIC (S. epidermidis MSSE; Staphylococcus epidermidis, strain S. ep MSSE140 (Table 8 No. 3)) | MIC (S. epidermidis MSSE; Staphylococcus epidermidis, strain S. ep MSSE153 (Table 8 No. 1)) | MIC (E. feacalis; strain Efa 116 (Table 8 No. 16)) | MIC ([1]; Staphylococcus aureus, MSSA, strain S. MSSA 123 (Table 7 No. 3)) | MIC ([1]; Staphylococcus aureus, MSSA, strain S. MSSA 187 (Table 7 No. 7)) | MIC ([1]; Staphylococcus aureus, MSSA, strain S. MSSA 232 (Table 7 No. 2)) | MIC ([1]; Staphylococcus aureus, MSSA, strain S. MSSA 466 (Table 7 No. 8)) | MIC ([1]; Staphylococcus aureus, MSSA, strain S. MSSA 520 (Table 7 No. 4)) | MIC (S. epidermidis MRSE; Staphylococcus epidermidis, MRSE, strain S. ep MRSE105 (Table 8 No. 11)) | MIC (S. epidermidis MRSE; Staphylococcus epidermidis, MRSE, strain S. ep MRSE142 (Table 8 No. 12)) | MIC (S. epidermidis MRSE; Staphylococcus epidermidis, MRSE, strain S. ep MRSE211 (Table 8 No. 8)) | MIC ([2]; Staphylococcus aureus, MRSA, strain S. MRSA 29 (Table 7 No. 15)) | MIC ([2]; Staphylococcus aureus, MRSA, strain S. MRSA 101 (Table 7 No. 14)) | MIC ([2]; Staphylococcus aureus, MRSA, strain S. MRSA B143 (Table 7 No. 19))
8 µg/mL: MIC90 (E. feacium) | MIC (E. feacium; strain Efm 171 (Table 8 No. 25)) | MIC (E. feacium; strain Efm N4 (Table 8 No. 24))
0.25 to 2 µg/mL: MICrange (E. feacalis; E. feacalis (5 strains), clinically isolated)
0.5 to 1 µg/mL: MICrange ([1]; S. MSSA (11 strains), clinically isolated) | MICrange ([2]; S. MRSA (10 strains), clinically isolated)
0.06 µg/mL: MIC (S. epidermidis MSSE; Staphylococcus epidermidis, strain S. ep MSSE142 (Table 7 No. 26))
2 µg/mL: MIC (E. feacium; strain Efm N3 (Table 8 No. 23)) | MIC90 (E. feacalis) | MIC (E. feacalis; strain Efa 3006 (Table 8 No. 18))
1 µg/mL: MIC90 (S. epidermidis MSSE; Staphylococcus epidermidis) | MIC (S. epidermidis MSSE; Staphylococcus epidermidis, strain S. ep MSSE88 (Table 8 No. 5)) | MIC (S. epidermidis MSSE; Staphylococcus epidermidis, strain S. ep MSSE118 (Table 8 No. 2)) | MIC (S. epidermidis MSSE; Staphylococcus epidermidis, strain S. ep MSSE137 (Table 8 No. 4)) | MIC50 (E. feacalis) | MIC (E. feacalis; strain Efa 54 (Table 8 No. 20)) | MIC (E. feacalis; strain Efa 907 (Table 8 No. 19)) | MIC50 ([1]; Staphylococcus aureus, MSSA) | MIC90 ([1]; Staphylococcus aureus, MSSA) | MIC ([1]; Staphylococcus aureus, MSSA, strain S. MSSA 195 (Table 7 No. 6)) | MIC ([1]; Staphylococcus aureus, MSSA, strain S. MSSA 195 (Table 7 No. 12)) | MIC ([1]; Staphylococcus aureus, MSSA, strain S. MSSA 201 (Table 7 No. 11)) | MIC ([1]; Staphylococcus aureus, MSSA, strain S. MSSA 275 (Table 7 No. 10)) | MIC ([1]; Staphylococcus aureus, MSSA, strain S. MSSA 519 (Table 7 No. 9)) | MIC ([1]; Staphylococcus aureus, MSSA, strain S. MSSA 580 (Table 7 No. 5)) | MIC50 (S. epidermidis MRSE; [3]) | MIC90 (S. epidermidis MRSE; [3]) | MIC (S. epidermidis MRSE; Staphylococcus epidermidis, MRSE, strain S. ep MRSE4 (Table 8 No. 9)) | MIC (S. epidermidis MRSE; Staphylococcus epidermidis, MRSE, strain S. ep MRSE20 (Table 8 No. 6)) | MIC (S. epidermidis MRSE; Staphylococcus epidermidis, MRSE, strain S. ep MRSE90 (Table 8 No. 10)) | MIC (S. epidermidis MRSE; Staphylococcus epidermidis, MRSE, strain S. ep MRSE101 (Table 8 No. 7)) | MIC (S. epidermidis MRSE; Staphylococcus epidermidis, MRSE, strain S. ep MRSE140 (Table 8 No. 14)) | MIC (S. epidermidis MRSE; Staphylococcus epidermidis, MRSE, strain S. ep MRSE210 (Table 8 No. 15)) | MIC50 ([2]; Staphylococcus aureus, MRSA) | MIC90 ([2]; Staphylococcus aureus, MRSA) | MIC ([2]; Staphylococcus aureus, MRSA, strain S. MRSA 201 (Table 7 No. 13)) | MIC ([2]; Staphylococcus aureus, MRSA, strain S. MRSA B27 (Table 7 No. 21)) | MIC ([2]; Staphylococcus aureus, MRSA, strain S. MRSA B105 (Table 7 No. 17)) | MIC ([2]; Staphylococcus aureus, MRSA, strain S. MRSA B151 (Table 7 No. 20)) | MIC ([2]; Staphylococcus aureus, MRSA, strain S. MRSA B164 (Table 7 No. 16)) | MIC ([2]; Staphylococcus aureus, MRSA, strain S. MRSA B199 (Table 7 No. 22)) | MIC (Staphylococcus aureus)
0.25 µg/mL: MIC (E. feacalis; strain Efa 33748 (Table 8 No. 17)) | MIC (S. epidermidis MRSE; Staphylococcus epidermidis, MRSE, strain S. ep MRSE87 (Table 8 No. 13))
0.25 to 1 µg/mL: MICrange (S. epidermidis MRSE; S. ep MRSE (10 strains), clinically isolated)
4 µg/mL: MIC50 (E. feacium) | MIC (E. feacium; strain Efm 98 (Table 8 No. 21)) | MIC (E. feacium; strain Efm 197 (Table 8 No. 22))
0.125 µg/mL: MIC (S. epidermidis MSSE; Staphylococcus epidermidis, strain S. ep MSSE87 (Table 7 No. 23)) | MIC (S. epidermidis MSSE; Staphylococcus epidermidis, strain S. ep MSSE116 (Table 7 No. 25)) | MIC (S. epidermidis MSSE; Staphylococcus epidermidis, strain S. ep MSSE119 (Table 7 No. 27))
